Reference: patent US12052991B2, “Substituted pyridinyloxybenzenes and salts thereof and use thereof as herbicidal agents” (Bayer Aktiengesellschaft, priority 2018, dated 2024)

Tests used:
Assay type in all cases: in vivo
[1] = system: Abutilon theophrasti (ABUTH); test: Herbicidal post-emergence action (Table B5); conditions: 1280 g/ha; rated visually after about 3 weeks; 100% = plants have died, 0% = like control plants
Method in brief: (§1)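 Visual percent activity relative to untreated controls (100% = plants dead, 0% = like controls) was scored about 3 weeks after treatment. Plants had been sprayed at the one-leaf stage with formulated compound at 1280 or 320 g/ha in 600 L/ha water containing 0.5% additive.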

[2] = system: Amaranthus retroflexus (AMARE); test: Herbicidal post-emergence action (Table B6); conditions: visual rating about 3 weeks after treatment, 100% = plants have died, 0% = like control plants
Method in brief: as §1

[3] = system: Echinochloa crus-galli (ECHCG); test: Herbicidal pre-emergence action, test C (Table C1); conditions: dosage 1280 g/ha; visual scoring after about 3 weeks; 100% = plants have died, 0% = like control plants
Text: (§2) Seeds of mono- and dicotyledonous weed plants were placed in plastic pots in sandy loam soil (doubly sown with one species each of mono- or dicotyledonous weed plants per pot) and covered with soil. The compounds of the invention, formulated in the form of wettable powders (WP) or as emulsion concentrates (EC), were then applied onto the surface of the covering soil as aqueous suspension or emulsion with addition of 0.5% additive at a water application rate of 600 liters per hectare (converted). After the treatment, the pots were placed in a greenhouse and kept under good growth conditions for the test plants. After about 3 weeks, the effect of the preparations was scored visually in comparison with untreated controls as percentages. For example, 100% activity=the plants have died, 0% activity=like control plants. Tables C1 to C12 below show the effects of selected compounds of the general formula (I) according to Table 1 on various harmful plants and an application rate corresponding to 1280 or 320 g/ha, which were obtained by the experimental procedure mentioned above.

Poa annua (POAAN) = test: Herbicidal pre-emergence action, test C (Table C3); conditions: visual scoring after about 3 weeks, 100% = plants have died, 0% = like control plants
Method in brief: (§3)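 In this test, soil-covered weed seeds in sandy loam received a surface application of compound at 1280 or 320 g/ha. Effects were rated visually as percentages compared with untreated controls roughly 3 weeks later.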

Setaria viridis (SETVI) = test: Herbicidal pre-emergence action, test C (Table C4); conditions: dosage 1280 g/ha; visual scoring after about 3 weeks; 100% = plants have died, 0% = like control plants
Method in brief: as §3

[4] = system: Abutilon theophrasti (ABUTH); test: Herbicidal pre-emergence action, test C (Table C5); conditions: dosage 1280 g/ha; visual scoring after about 3 weeks; 100% = plants have died, 0% = like control plants
Method in brief: as §3

[5] = system: Amaranthus retroflexus (AMARE); test: Herbicidal pre-emergence action, test C (Table C6); conditions: visual scoring after about 3 weeks, 100% = plants have died, 0% = like control plants
Method in brief: as §3

[6] = system: Matricaria inodora (MATIN); test: Herbicidal pre-emergence action, test C (Table C7); conditions: dosage 1280 g/ha; visual scoring after about 3 weeks; 100% = plants have died, 0% = like control plants
Method in brief: as §3

Stellaria media (STEME) [7] = test: Herbicidal pre-emergence action, test C (Table C8); conditions: dosage 1280 g/ha; visual scoring after about 3 weeks; 100% = plants have died, 0% = like control plants
Method in brief: as §3

[8] = system: harmful plants ABUTH, AMARE, ECHCG, LOLRI, MATIN, POAAN, SETVI, STEME, ALOMY, DIGSA, KCHSC and VERPE; test: Herbicidal post-emergence action, summary of Tables B1-B12; conditions: application rate of 1280 or 320 g of active ingredient per hectare; summary in words
Method in brief: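 Greenhouse weeds in sandy loam treated post-emergence at the one-leaf stage, 2–3 weeks after sowing, with WP or EC formulations sprayed with 0.5% additive at 600 L/ha water, 1280 or 320 g/ha. Damage rated visually after about 3 weeks versus untreated controls (0% = like control, 100% = dead).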

[9] = system: harmful plants ABUTH, AMARE, ECHCG, LOLRI, MATIN, POAAN, SETVI, STEME, ALOMY, DIGSA, KCHSC and VERPE; test: Herbicidal pre-emergence action (test C), summary of Tables C1-C12; conditions: application rate of 1280 or 320 g of active ingredient per hectare; summary in words
Method in brief: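 Pre-emergence pot test in sandy loam: WP or EC formulations were sprayed onto the covering soil with 0.5% additive at 600 L/ha water, at 1280 or 320 g/ha. Plants were kept in the greenhouse, and activity was rated visually about 3 weeks later as % versus untreated controls (100% = dead).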

Agrostis tenuis (AGSTE) = test: Herbicidal early post-emergence action (Table A1); conditions: 1900 g/ha; scored visually 9 to 12 days after treatment; 100% = plants have died, 0% = like control plants
Experimental: (§4) Seeds of monocotyledonous and dicotyledonous weed plants were placed in 96-well microtiter plates in quartz sand and grown in a climatized chamber under controlled growth conditions. 5 to 7 days after sowing, the test plants were treated at the cotyledon stage. The compounds according to the invention, formulated in the form of emulsion concentrates (EC), were applied with a water application rate of the equivalent of 2200 liters per hectare. After the test plants had been left to stand in the climatized chamber for 9 to 12 days under optimum growth conditions, the effect of the preparations was scored visually in comparison to untreated controls. For example, 100% activity=the plants have died, 0% activity=like control plants. Tables A1 to A8 below show the effects of selected compounds of the general formula (I) according to Table 1 on various harmful plants and an application rate corresponding to 1900 g/ha, which were obtained by the experimental procedure mentioned above.

[10] = system: harmful plants AGSTE, DIPTE, LOLPE, MATCH, POAAN, SETVI, STEME and VERPE; test: Herbicidal early post-emergence action, summary of Tables A1-A8; conditions: application rate of 1900 g of active ingredient per hectare; summary in words
Experimental: as §4, with “plants.” for “plants. Tables A1 to A8 below show the effects of selected compounds of the general formula (I) according to Table 1 on various harmful plants and an application rate corresponding to 1900 g/ha, which were obtained by the experimental procedure mentioned above.”
Tables A1 to A8 below show the effects of selected compounds of the general formula (I) according to Table 1 on various harmful plants and an application rate corresponding to 1900 g/ha, which were obtained by the experimental procedure mentioned above.
As the results of Tables A1-A8 show, compounds no.

Stellaria media (STEME) [11] = test: Herbicidal post-emergence action (Table B8); conditions: dosage 1280 g/ha; visual rating about 3 weeks after treatment; 100% = plants have died, 0% = like control plants
Method in brief: as §1

Bassia scoparia (KCHSC) = test: Herbicidal post-emergence action (Table B11); conditions: dosage 1280 g/ha; visual rating about 3 weeks after treatment; 100% = plants have died, 0% = like control plants
Experimental: Seeds of mono- and dicotyledonous weed plants were placed in plastic pots in sandy loam soil (doubly sown with in each case one species of mono- or dicotyledonous weed plants per pot), covered with soil and cultivated in a greenhouse under controlled growth conditions. 2 to 3 weeks after sowing, the test plants were treated at the one-leaf stage. The compounds of the invention, formulated in the form of wettable powders (WP) or as emulsion concentrates (EC), were applied onto the green parts of the plants as aqueous suspension or emulsion with addition of 0.5% additive at a water application rate of 600 liters per hectare (converted). After the test plants had been kept in the greenhouse under optimum growth conditions for about 3 weeks, the activity of the preparations was rated visually in comparison to untreated controls. For example, 100% activity=the plants have died, 0% activity=like control plants. Tables B1 to B12 below show the effects of selected compounds of the general formula (I) according to Table 1 on various harmful plants and an application rate corresponding to 1280 or 320 g/ha, which were obtained by the experimental procedure mentioned above.

Veronica persica (VERPE) [12] = test: Herbicidal post-emergence action (Table B12); conditions: visual rating about 3 weeks after treatment, 100% = plants have died, 0% = like control plants
Method in brief: as §1

Lolium rigidum (LOLRI) = test: Herbicidal pre-emergence action, test C (Table C2); conditions: dosage 1280 g/ha; visual scoring after about 3 weeks; 100% = plants have died, 0% = like control plants
Text: as §2

[13] = system: Digitaria sanguinalis (DIGSA); test: Herbicidal pre-emergence action, test C (Table C10); conditions: dosage 1280 g/ha; visual scoring after about 3 weeks; 100% = plants have died, 0% = like control plants
Method in brief: as §3

Veronica persica (VERPE) [14] = test: Herbicidal pre-emergence action, test C (Table C12); conditions: visual scoring vs untreated controls
Method in brief: as §3

## N#Cc1ccc(Oc2cccc(F)c2-c2cc(C(F)F)on2)nc1 [Example 1-11]
[1]
  Post-emergence action against Abutilon theophrasti (ABUTH): 100%
[2]; dosage 320 g/ha
  Post-emergence action against Amaranthus retroflexus (AMARE): 100%
[2]; dosage 1280 g/ha
  Post-emergence action against Amaranthus retroflexus (AMARE): 100%
[3]
  Pre-emergence action against Echinochloa crus-galli (ECHCG): 90%
Poa annua (POAAN); dosage 1280 g/ha
  Pre-emergence action against Poa annua (POAAN): 90%
Setaria viridis (SETVI)
  Pre-emergence action against Setaria viridis (SETVI): 90%
[4]
  Pre-emergence action against Abutilon theophrasti (ABUTH): 100%
[5]; dosage 1280 g/ha
  Pre-emergence action against Amaranthus retroflexus (AMARE): 100%
[6]
  Pre-emergence action against Matricaria inodora (MATIN): 90%
Stellaria media (STEME) [7]
  Pre-emergence action against Stellaria media (STEME): 100%
[8]
  herbicidal activity against the harmful plants of Tables B1-B12 in post-emergence treatment: very good herbicidal activity
[9]
  herbicidal activity against the harmful plants of Tables C1-C12 in pre-emergence treatment: very good herbicidal activity

## Fc1cccc(Oc2ncc(Cl)cc2Cl)c1-c1cc(C(F)F)on1 [Example 1-12]
Agrostis tenuis (AGSTE)
  Early post-emergence effect against Agrostis tenuis (AGSTE): 80%
[10]
  herbicidal activity against the harmful plants of Tables A1-A8 in early post-emergence treatment: very good herbicidal activity

## Fc1cccc(Oc2ncc(C(F)(F)F)cc2Cl)c1-c1cc(C(F)F)on1 [Example 1-13]
Agrostis tenuis (AGSTE)
  Early post-emergence effect against Agrostis tenuis (AGSTE): 80%
[10]
  herbicidal activity against the harmful plants of Tables A1-A8 in early post-emergence treatment: very good herbicidal activity

## Fc1ccc(Oc2ccc(Cl)cn2)c(-c2cc(C(F)F)on2)c1 [Example 1-30]
Agrostis tenuis (AGSTE)
  Early post-emergence effect against Agrostis tenuis (AGSTE): 80%
[10]
  herbicidal activity against the harmful plants of Tables A1-A8 in early post-emergence treatment: very good herbicidal activity

## Oc1ccc(-c2cc(C(F)F)no2)c(Oc2ccc(Cl)cn2)c1 [Example 1-42]
Agrostis tenuis (AGSTE)
  Early post-emergence effect against Agrostis tenuis (AGSTE): 80%
[10]
  herbicidal activity against the harmful plants of Tables A1-A8 in early post-emergence treatment: very good herbicidal activity

## FC(F)(F)c1cccc(-c2ccccc2Oc2ccccn2)n1 [Example 1-50]
Agrostis tenuis (AGSTE)
  Early post-emergence effect against Agrostis tenuis (AGSTE): 80%
[10]
  herbicidal activity against the harmful plants of Tables A1-A8 in early post-emergence treatment: very good herbicidal activity

## Cn1nc(-c2c(F)cccc2Oc2ccc(Cl)cn2)cc1C(F)F [Example 1-64]
[2]; dosage 320 g/ha
  Post-emergence action against Amaranthus retroflexus (AMARE): 100%
[2]; dosage 1280 g/ha
  Post-emergence action against Amaranthus retroflexus (AMARE): 100%
Stellaria media (STEME) [11]
  Post-emergence action against Stellaria media (STEME): 100%
Bassia scoparia (KCHSC)
  Post-emergence action against Bassia scoparia (KCHSC): 90%
Veronica persica (VERPE) [12]; dosage 320 g/ha
  Post-emergence action against Veronica persica (VERPE): 90%
Veronica persica (VERPE) [12]; dosage 1280 g/ha
  Post-emergence action against Veronica persica (VERPE): 90%
Lolium rigidum (LOLRI)
  Pre-emergence action against Lolium rigidum (LOLRI): 90%
Poa annua (POAAN); dosage 320 g/ha
  Pre-emergence action against Poa annua (POAAN): 90%
Poa annua (POAAN); dosage 1280 g/ha
  Pre-emergence action against Poa annua (POAAN): 100%
Setaria viridis (SETVI)
  Pre-emergence action against Setaria viridis (SETVI): 100%
[4]
  Pre-emergence action against Abutilon theophrasti (ABUTH): 90%
[5]; dosage 320 g/ha
  Pre-emergence action against Amaranthus retroflexus (AMARE): 100%
[5]; dosage 1280 g/ha
  Pre-emergence action against Amaranthus retroflexus (AMARE): 100%
[6]
  Pre-emergence action against Matricaria inodora (MATIN): 90%
Stellaria media (STEME) [7]
  Pre-emergence action against Stellaria media (STEME): 100%
[13]
  Pre-emergence action against Digitaria sanguinalis (DIGSA): 90%
Veronica persica (VERPE) [14]; dosage 320 g/ha
  Pre-emergence action against Veronica persica (VERPE): 90%
Veronica persica (VERPE) [14]; dosage 1280 g/ha
  Pre-emergence action against Veronica persica (VERPE): 100%
[8]
  herbicidal activity against the harmful plants of Tables B1-B12 in post-emergence treatment: very good herbicidal activity
[9]
  herbicidal activity against the harmful plants of Tables C1-C12 in pre-emergence treatment: very good herbicidal activity

## Cn1nc(C(F)F)cc1-c1c(F)cccc1Oc1ncc(Cl)cc1F [Example 1-82]
Agrostis tenuis (AGSTE)
  Early post-emergence effect against Agrostis tenuis (AGSTE): 80%
[10]
  herbicidal activity against the harmful plants of Tables A1-A8 in early post-emergence treatment: very good herbicidal activity
